Data from EPA's aquatic toxicity sets.

Key:
Tetrahymena pyriformis = test: 48 h IGC50 (-log10 mol/L); higher = more toxic
Daphnia magna = test: 48 h LC50 (-log10 mol/L); higher = more toxic
Pimephales promelas = test: 96 h LC50 (-log10 mol/L); higher = more toxic

Structure (SMILES)	48 h IGC50 (-log10 mol/L) (Tetrahymena pyriformis)	48 h LC50 (-log10 mol/L) (Daphnia magna)	96 h LC50 (-log10 mol/L) (Pimephales promelas)
CCCCCCCO	3.1	3.23	3.51
c1ccc2c(c1)[nH]c1ccccc12	3.91	4.7	5.25
COc1cccc(O)c1	2.67	3.48	3.22
CCCCCC	3.72	4.34	4.54
Oc1cc(Cl)c(Cl)cc1Cl	5.1	4.86	5.27
O=[N+]([O-])c1ccccc1	3.14	3.62	3.02
CC#N	0.723	1.06	1.61
Clc1ccccc1	2.87	3.92	3.65
CCO	1.01	0.59	0.534
Clc1cccc(Cl)c1	3.56	4.3	4.27
CCCCC(=O)O	2.73	3.36	3.12
c1ccc2nc3ccccc3cc2c1	4.4	4.85	4.89
CNc1ccccc1	3.06	5.79	3.03
Cc1cccc([N+](=O)[O-])c1	3.42	4.04	3.64
CC(C)=O	0.796	0.673	0.854
O=[N+]([O-])c1ccccc1O	3.67	4.02	2.94
C=CC=O	4.89	5.99	6.32
CC1=CC(=O)c2ccccc2C1=O	4.54	5.54	6.2
CCCCCCCCCc1ccc(O)cc1	5.47	6.06	5.91
Cc1ccccc1	3.25	3	3.43
Cc1ccc(O)cc1	2.84	3.71	3.67
Cc1ccccc1O	2.71	3.86	3.89
